The values that follow come from patent publication US20240181121A1, “A WOUND CARE PRODUCT COMPRISING AN ANTIMICROBIAL COATING” (Mölnlycke Health Care AB, priority 2021, published 2024).

One data set has as its system Staphylococcus aureus. The settings on record: prototype coated with 75 μg/cm^2; sterilized; 2 ml SWF. How it is done: (§1) Test organisms: P. aeruginosa ATCC 9027 (bacteria), S. aureus ATCC 6538 (bacteria), C. albicans ATCC 10231 (fungi), P. aeruginosa ATCC PAO1 (bacteria, example 1b).
(§2) Test time: 24 h for bacteria and 48 h for fungi
(§3) Start inoculum: 1×10^6 CFU/ml for bacteria, 4×10^6 CFU/ml for fungi.

The subject of data set [1] is Candida albicans ATCC 10231. Kind of data set: Minimum bactericidal concentration (MBC) in solution, simulated wound fluid. The format is cell-based. The settings on record: for MBC: Candida albicans, simulated wound fluid, 48 h. Here is the method:
as §1, §2, §3
(§4) Tests were performed in solution to compare the potency of silver sulfate, chlorhexidine phosphate and chlorhexidine gluconate, using simulated wound fluid, SWF (fetal bovine serum (FBS) and Peptone Water (PW) mixed in equal proportions, which correspond to the protein and electrolyte concentration of wound exudates (Emiko Aiba-Kojima, M D et. al Wound Rep Reg (2007) 15 511-520; Trengove, N et al Wound Rep Reg (1996) 4 1067-1927)) as test medium. The aim was to define the lowest concentration of an antimicrobial agent required to kill the specific microorganism. The test microorganisms were suspended in SWF, in which antimicrobial substances were added at different concentration before subculture in well microtiter plates.

For the next data set, the system named is S. aureus ATCC 6538. Described as above. The format is cell-based. How it is done:
as §1, §2, §3, §4

Data set [2] concerns P. aeruginosa (ATCC 9027). The data set is described as above. It is filed as cell-based. How it is done:
as §1, §2, §3, §4

A short description of data set [3]: Rate of dissolution of antimicrobial coating in water, LC-MS. The settings on record: 2 ml water; sterilized coated wound contact layer. It is filed as physicochemical. Here is the method:
The comparison was made between prototypes spray coated with an antimicrobial solution of chlorhexidine phosphate (0.56% by weight) and prototypes spray coated with an antimicrobial solution of chlorhexidine acetate (0.68% by weight). The spray coating was performed with the same parameters and on the same equipment, as described with respect to Example 1 and 2 hereinbefore. After spraying, the samples were sent to sterilization on production site to undergo typical sterilization cycle required for antimicrobial products. […] Triplicates of silicone coated films (wound contact layers) and release liners were separated and placed in wells in contact with 2 ml solution of water during 3 hours, then removed and placed in a new well for 24 hours in order to evaluate instant (>3 h) and short (>24 h) term dissolution. After calibration of the equipment against the solutions of interest, the concentration of CHP and CHAc in the different wells was evaluated by Liquid chromatography-mass spectrometry in order to quantify the amount of antimicrobial coating that was able to dissolve instantly or shortly.

The subject of data set [4] is Pseudomonas aeruginosa PAO1 biofilms. Description: Reduction of biofilm counts in contact with CHP solution (collagen matrix, SWF). As to conditions: for Log count / Log reduction: biofilm, 24 h. It is filed as cell-based. Here is the method: Tests were performed in solution to evaluate the potency of chlorhexidine phosphate (CHP) against biofilms cultured on a collagen matrix, using SWF as test medium. The aim was to define if concentrations of CHP that can be spray coated on the surface of the silicone contact layer would have an impact on the biofilms. The test microorganism was Pseudomonas aeruginosa PAO1, suspended in a SWF solution, and placed on a collagen matrix in wells of 24-well plates. The well plates were incubated at 37° C., 95% relative humidity for 24 h to induce formation of biofilms. After incubation and formation of biofilms, the antimicrobial substance CHP was added on top of biofilms at different concentrations in triplicates and were incubated for another 24 h at 37° C., 95% relative humidity. […] The number of viable counts were determined by plating on PetriFilms.

For data set [5], the system named is all microorganism (same microorganisms as used in Example 1a). Kind of data set: Antimicrobial effect of coating sprayed on silicone wound contact layer. It is filed as cell-based, S. aureus, P. aeruginosa, C. albicans. The settings on record: sterilized, 2 ml SWF.
Protocol: The prototypes were punched into disks of 7 cm^2 and placed in a well in contact with 2 ml SWF containing a solution of microorganism in suspension (same microorganisms as used in Example 1a). The wound contact layer used in the tests comprised a polyurethane film coated with 200 gsm of a silicone adhesive.
Microorganism growth was evaluated on the silicone layer; i.e. the skin facing surface, and in suspension in the liquid.

SMILES strings stand for the structures.

Take `O=S(=O)([O-])[O-].[Ag+].[Ag+]` [Silver sulfate, silver sulfate]: the “log reduction from inoculum size” value in the data set with Staphylococcus aureus is given as under 4 log. Moreover, the MBC in data set [1] is reported as 5000 µM; against S. aureus ATCC 6538 (24 h), 310 µM; in data set [2] (24 h), 160 µM.
`CC(=O)O.CC(=O)O.NC(=N\CCCCCC/N=C(N)/N=C(\N)Nc1ccc(Cl)cc1)/N=C(\N)Nc1ccc(Cl)cc1` [CHAc, chlorhexidine acetate, reference compound]: in data set [3], the “Instant dissolution % Released from silicone after 3 h” value is 28% and the “Short time dissolution Additional % released from silicone after additional 21 h” value is given as 11%.
Consider `N=C(NCCCCCCNC(=N)NC(=N)Nc1ccc(Cl)cc1)NC(=N)Nc1ccc(Cl)cc1.O=C(O)[C@H](O)[C@@H](O)[C@H](O)[C@H](O)CO.O=C(O)[C@H](O)[C@@H](O)[C@H](O)[C@H](O)CO` [CHG, chlorhexidine gluconate], for which the MBC is 60 µM in data set [1], 30 µM in the data set with S. aureus ATCC 6538 (24 h) and 520 µM in data set [2] (24 h).
As for `N=C(NCCCCCCNC(=N)NC(=N)Nc1ccc(Cl)cc1)NC(=N)Nc1ccc(Cl)cc1` [CHP, chlorhexidine phosphate], the “Instant dissolution % Released from silicone after 3 h” value in data set [3] was found to be 100%. The “Total released in 24 h” value in data set [3] is 100%. Besides, the Log count in data set [4] (CHP 37 uM (sample 1)) is given as 4.4; in data set [4] (CHP 75 uM (sample 2)), 3.9; in data set [4] (CHP 150 uM (sample 3)), 4.1. Further, the Log reduction amounted to 5.5 in data set [4] (CHP 37 uM (sample 1)), 6.1 in data set [4] (CHP 75 uM (sample 2)) and 5.9 in data set [4] (CHP 150 uM (sample 3)). The “log reduction of biofilms vs FDA requirement” value in data set [4] (CHP solutions of 37 μM, 75 μM, 150 μM) is over 4. For the same compound, the MBC is 26 µM in data set [1] (ATCC10231); 7 µM with S. aureus ATCC 6538 (Staphylococcus aureus, ATCC6538, 24 h); 26 µM in data set [2] (Pseudomonas aeruginosa, ATCC9027, 24 h). The “times more silver than chlorhexidine phosphate required to kill Candida albicans” value in data set [1] (ratio silver vs chlorhexidine phosphate) is given as “up to 190 times”. In addition, the “elimination of microorganism on the silicone surface and in the solution” value in data set [5] (prototype sprayed at 45 μg/cm^2) and in data set [5] (prototype sprayed at 75 μg/cm^2) was “full elimination” each time.
